Read-outs that look alike come from different tables or passages of the source.
How the values were obtained:
[1] = system: CAPAN1; assay: Activity in Capan1 cells (ME1 responder line); format: cell-based; settings: Homo sapiens
Method: (§1) Compound 1-4 were tested (Table 1) for inhibition of ME1. […] Capan1 is an ME1 responder line. H23 is an ME1 non-responder line.
(§2) Compound 5-7 were tested (Table 2) for inhibition of ME1. […] Capan1 is an ME1 responder line. H23 is an ME1 non-responder line.

[2] = Permeability pH 6.5; format: in vitro ADME; settings: PAMPA
[3] = system: H23; assay: Activity in H23 cells (ME1 non-responder line); format: cell-based; settings: Homo sapiens
Method: as §1, §2

[4] = CAPAN-1, Table 1, read-out: CAPAN1 IC50/EC50
[5] = CAPAN-1, Table 2, read-out: CAPAN1 IC50/EC50
[6] = NCI-H23, Table 2, read-out: H23 IC50/EC50
[7] = NCI-H23, Table 1, read-out: H23 IC50/EC50

Row | EC50 [1, 4] [µM] | Papp ([2]; Table 1) [×10⁻⁶ cm/s] | EC50 [1, 5] [µM] | EC50 [3, 6] [µM] | Papp ([2]; Table 2) [×10⁻⁶ cm/s] | EC50 [3, 7] [µM] | SMILES
1 | 1.8 | > 30 | – | – | – | – | Cc1nn(-c2ccc(Cl)cc2)c2ncc(C(=O)NC3CCN(C)CC3)cc12 [Compound 4]
2 | – | – | 2.4 | 8.6 | 15.1 | – | Cc1cc(=O)c(O)cn1CCN1CCCc2ccccc21 [Compound 5]
3 | – | – | 0.78 | 1.7 | 18.1 | – | Cc1cc(=O)c(O)cn1CCCc1ccc(Cl)cc1 [Compound 6]
4 | 26.6 | > 30 | – | – | – | 4.8 | CC1CCN(c2nc3c(c(N4CCc5n[nH]cc5C4)n2)CS(=O)(=O)C3)CC1 [Compound 3]
5 | 16.1 | 26.5 | – | – | – | 8.1 | CC1CCN(c2ccc3nnc(-c4cccc(CN(C)C)c4)n3n2)CC1 [Compound 1]
6 | 3.1 | < 0.3 | – | – | – | 8.6 | CCN1CCC(C(=O)Nc2cccc(-c3nnc4ccc(N5CCC(C)CC5)nn34)c2)CC1 [Compound 2]

Row | SMILES | EC50 [1, 4] [µM] | Papp ([2]; Table 1) [×10⁻⁶ cm/s] | EC50 [1, 5] [µM] | EC50 [3, 6] [µM] | Papp ([2]; Table 2) [×10⁻⁶ cm/s] | EC50 [3, 7] [µM]
7 | Cc1cc(=O)c(O)c(CN2CC=C(c3ccc(F)cc3)CC2)n1C [Compound 7] | – | – | 26.6 | 5.7 | – | –
